Laboratory results reported in US8691991B2 (priority 2004, dated 2014).
pIC50: −log10 of the molar value.

Test system: HIV-1 (strain IIIB)
Test: MT4 cell assay: antiviral HIV activity (HIV-induced cytopathic effect)
Format: cell-based
Conditions: Human immunodeficiency virus 1, IIIB, control and standard, propidium iodide readout, tested 0.01 to 1 μM in every assay, read-out: expected range of IC50 values
Procedure: Antiviral HIV activity and compound-induced cytotoxicity were measured in parallel by means of a propidium iodide based procedure in the human T-cell lymphotropic virus transformed cell line MT4. Aliquots of the test compounds were serially diluted in medium (RPMI 1640, 10% fetal calf serum (FCS), and gentamycin) in 96-well plates (Costar 3598) using a Cetus Pro/Pette. Exponentially growing MT4 cells were harvested and centrifuged at 1000 rpm for 10 min in a Jouan centrifuge (model CR 4 12). Cell pellets were resuspended in fresh medium (RPMI 1640, 20% FCS, 20% IL-2, and gentamycin) to a density of 5×10^5 cells/ml. Cell aliquots were infected by the addition of HIV-1 (strain IIIB) diluted to give a viral multiplicity of infection of 100×TCID50. […]
For propidium iodide readout, 27 μl of 5% Nonidet-40 was added to each well of the incubation plate. […] The plates were analyzed in an automated assay instrument (Screen Machine, Idexx Laboratories). […]
For MTS readout, 20 μl CellTiter 96 AQ One Solution reagent (Promega #G3582) was added to each well. At 75 minutes following the addition of MTS reagent, absorbance was read at […] using a Tecan Sunrise 96-well plate reader. […]
For each assay plate, the results (relative fluorescence units, rfU, or OD values) of wells containing uninfected cells or infected cells with no compound were averaged, respectively. […]

pIC50: 6.92 to 7.40
Structure (SMILES): Cc1cn([C@H]2C[C@H](N=[N+]=[N-])[C@@H](CO)O2)c(=O)[nH]c1=O [3′-azido-3′-deoxythymidine]
